US6825348B2, “Antiviral compounds” (Academia Sinica, priority 2002, dated 2004)

What was measured:
[1] = Lipophilicity, 1-octanol/water partition coefficient; conditions: P = [substrate]1-octanol/[substrate]H2O; phosphate buffer 0.10 M
[2] = tested on: herpes simplex type 1 virus (HSV-1) (KOS); assay: Inhibition of HSV-1 cytopathogenicity in Vero cell culture; type: cell-based; conditions: Vero cell culture; 50% inhibition of virus-induced cytopathogenicity; mean of duplicates; for 1:1 (W/W) mixtures IC50 refers to known antiviral drugs
[3] = tested on: herpes simplex type 2 virus (HSV-2) (G); assay: Inhibition of HSV-2 cytopathogenicity in Vero cell culture; type: cell-based; conditions: 50% inhibition of cytopathogenicity, for 1:1 mixtures IC50 refers to known antiviral drugs
HIV-1 (IIIB) = assay: microbe, parasite or virus in culture; type: cell-based; conditions: MT4 cells, average of duplicates
[4] = tested on: thymidine kinase-positive (TK+) varicella-zoster virus (YS); assay: Inhibition of TK+ VZV cytopathogenicity in Vero cell culture; type: cell-based; conditions: Vero cell culture; 50% inhibition of cytopathogenicity; for 1:1 mixtures IC50 refers to known antiviral drugs
HIV-2 (LAV-2) = assay: Inhibition of HIV-2 cytopathogenicity in MT4 cells; type: cell-based, human immunodeficiency virus; conditions: MT4 cells, average of duplicates
[5] = tested on: human cytomegalovirus (AD-169); assay: Inhibition of HCMV cytopathogenicity in Vero cell culture; type: cell-based; conditions: Vero cell culture; 50% inhibition of cytopathogenicity; for 1:1 mixtures IC50 refers to known antiviral drugs
[6] = tested on: moloney murine sarcoma virus (MSV); assay: Inhibition of MSV cytopathogenicity in CEM cells (cell-protection assay); type: cell-based; conditions: CEM cells, average of duplicates
[7] = Solubility in water (phosphate buffer, UV absorbance); conditions: phosphate buffer 0.10 M, pH 6.8, agitated 20 h
[8] = tested on: thymidine kinase-deficient (TK−) varicella-zoster virus (YS/R); assay: microbe, parasite or virus in culture; type: cell-based; conditions: Vero cell culture; 50% inhibition of cytopathogenicity; for 1:1 mixtures IC50 refers to known antiviral drugs

[1-(Guanine-9-yl-ethoxy)methyl]phosphono-6-yl-(Z)-4-(ethylidene)-2,3-dimethoxy-Δ^a,b-butenolide [Compound 29]
log P (1-octanol/water) [1]: 0.79 | IC50 HSV-1 (KOS) [2]: 0.42 µg/mL | IC50 HSV-2 (G) [3]: 0.28 µg/mL | IC50 HIV-1 (IIIB) (HIV-1 (IIIB)): 6.0 µg/mL | MT4 cell, concentration reducing the number of viable uninfected cells by 50% (MT4 cells): 14 µg/mL | IC50 TK+VZV (YS) [4]: 0.0070 µg/mL | HeLa cell, concentration causing microscopically visible change or disruption in about 50% of the cell sheet (HeLa cells): 8.8 µg/mL | IC50 HIV-2 (LAV-2) (HIV-2 (LAV-2)): 7.1 µg/mL | IC50 HCMV (AD-169) [5]: 0.020 µg/mL | IC50 MSV [6]: 0.020 µg/mL | CEM cell, concentration reducing the number of viable uninfected cells by 50% (CEM cells): 13 µg/mL | solubility in water [7]: 2050 µg/mL | IC50 TK−VZV (YS/R) [8]: 0.0080 µg/mL | Vero cell, concentration causing microscopically visible change or disruption in about 50% of the cell sheet (Vero cells): 6.6 µg/mL
